The source of these data is patent publication US12286435B2, “Compound having benzo seven-membered ring structure, preparation method therefor, and use thereof” (BIONNA (BEIJING) MEDICAL TECHNOLOGY CO., LTD., priority 2019, dated 2025).

Test [1] addresses BRD4 BD2 protein (Homo sapiens (Human), UniProt O60885). Nature of the test: Fluorescence polarization binding affinity (Ki) with BRD4 BD2 protein.
In test [2] the target is BRD4 BD1 protein (Homo sapiens (Human), UniProt O60885). Description: Fluorescence polarization binding affinity (Ki) with BRD4 BD1 protein.
Where [3] appears, read: fluorescence polarization, Ki calculated from IC50.

Structures can show the parent of a compound that is named as a salt. Where two headings read alike, the source gives them in different places. Some results are limits rather than exact numbers.

As to `Cc1nnn2c1-c1ccc(C3=CCNCC3)cc1C(Nc1cccc(CC#N)c1)CC2` (stereo not drawn) [RC71, 2-(3-((1-methyl-9-(1,2,3,6-tetrahydropyridin-4-yl)-6,7-dihydro-5H-benzo[c][1,2,3]triazolo[1,5-a]azepin-7-yl)amino)phenyl)acetonitrile 2,2,2-trifluoroacetate], the results for the Ki in test [1] (setting [3]) and in test [2] (setting [3]) were 52.5 nM and 1040 nM, respectively.
As for `Cc1nnn2c1-c1ccc(-c3cnn(C)c3)cc1C(N(C=O)c1cccc(Cl)c1)CC2` (stereo not drawn) [LC174, N-(3-chlorophenyl)-N-(1-methyl-9-(1-methyl-1H-pyrazol-4-yl)-6,7-dihydro-5H-benzo[c][1,2,3]triazolo[1,5-a]azepin-7-yl)formamide], the results for the Ki in test [1] (setting [3]) and in test [2] (setting [3]) were 623 nM and 949 nM, respectively.
For `Cc1nnn2c1-c1ccc(C3=CCNC3)cc1C(Nc1cccc(O)c1)CC2` (stereo not drawn) [BJ183, 3-((9-(2,5-dihydro-1H-pyrrol-3-yl)-1-methyl-6,7-dihydro-5H-benzo[d][1,2,3]triazolo[1,5-a]azepin-7-yl)amino)phenol 2,2,2-trifluoroacetate], in that order: 45 nM and 939 nM.
The matching figures for `CCN1CC=C(c2ccc3c(c2)C(Nc2cccc(C#N)c2)CCn2nnc(C)c2-3)CC1` (stereo not drawn) [BI37, 3-((9-(1-ethyl-1,2,3,6-tetrahydropyridin-4-yl)-1-methyl-6,7-dihydro-5H-benzo[c][1,2,3]triazolo[1,5-a]azepin-7-yl)amino)benzonitrile 2,2,2-trifluoroacetate]: 196 nM and 2570 nM.
For `Cc1nnn2c1-c1ccc(C3=CCN(C(C)C)CC3)cc1C(Nc1cc(Cl)ccc1F)CC2` (stereo not drawn) [BI68, N-(5-chloro-2-fluorophenyl)-9-(1-isopropyl-1,2,3,6-tetrahydropyridin-4-yl)-1-methyl-6,7-dihydro-5H-benzo[c][1,2,3]triazolo[1,5-a]azepin-7-amine 2,2,2-trifluoroacetate], in that order: 45.1 nM and 1110 nM.
As for `Cc1nnn2c1-c1ccc(C3=CCNCC3)cc1C(Nc1cc(Cl)ccc1F)CC2` (stereo not drawn) [LD08, N-(5-chloro-2-fluorophenyl)-1-methyl-9-(1,2,3,6-tetrahydropyridin-4-yl)-6,7-dihydro-5H-benzo[c][1,2,3]triazolo[1,5-a]azepin-7-amine 2,2,2-trifluoroacetate], the Ki in test [1] (setting [3]) is 62.3 nM; in test [2] (setting [3]), 1270 nM.
Consider `Cc1nnn2c1-c1ccc(C3=CCN(C4CCC4)CC3)cc1C(Nc1ccc(F)c(Cl)c1)CC2` (stereo not drawn) [BI23, N-(3-chloro-4-fluorophenyl)-9-(1-cyclobutyl-1,2,3,6-tetrahydropyridin-4-yl)-1-methyl-6,7-dihydro-5H-benzo[c][1,2,3]triazolo[1,5-a]azepin-7-amine 2,2,2-trifluoroacetate], for which the Ki in test [1] (setting [3]) was 57.3 nM; in test [2] (setting [3]), 1060 nM.
For `Cc1nnn2c1-c1ccc(C3=CCNCC3)cc1C(Nc1ccc3cc[nH]c3c1)CC2` (stereo not drawn) [WA83, N-(1H-indo1-6-yl)-1-methyl-9-(1,2,3,6-tetrahydropyridin-4-yl)-6,7-dihydro-5H-benzo[c][1,2,3]triazolo[1,5-a]azepin-7-amine 2,2,2-trifluoroacetate], in that order: 88.6 nM and 431 nM.
Regarding `Cc1nnn2c1-c1ccc(C3=CCN(C4CCC4)CC3)cc1C(Nc1cccc(S(C)(=O)=O)c1)CC2` (stereo not drawn) [BI61, 9-(1-cyclobutyl-1,2,3,6-tetrahydropyridin-4-yl)-1-methyl-N-(3-(methylsulfonyl)phenyl)-6,7-dihydro-5H-benzo[c][1,2,3]triazolo[1,5-a]azepin-7-amine 2,2,2-trifluoroacetate], the values for the Ki in test [1] (setting [3]) and in test [2] (setting [3]) were 148 nM and 3200 nM, respectively.
Regarding `COc1cccc(NC2CCn3nnc(C)c3-c3ccc(C4=CCNCC4)cc32)c1` (stereo not drawn) [LC159, N-(3-methoxyphenyl)-1-methyl-9-(1,2,3,6-tetrahydropyridin-4-yl)-6,7-dihydro-5H-benzo[c][1,2,3]triazolo[1,5-a]azepin-7-amine 2,2,2-trifluoroacetate], the figures for the inhibition constant Ki in test [1] (setting [3]) and in test [2] (setting [3]) were 65.4 nM and 2130 nM, respectively.
In the case of `Cc1nnn2c1-c1ccc(C3=CCN(C4CCC4)CC3)cc1C(Nc1cccc(Cl)c1F)CC2` (stereo not drawn) [RE30, N-(3-chloro-2-fluorophenyl)-9-(1-cyclobutyl-1,2,3,6-tetrahydropyridin-4-yl)-1-methyl-6,7-dihydro-5H-benzo[c][1,2,3]triazolo[1,5-a]azepin-7-amine 2,2,2-trifluoroacetate], the inhibition constant Ki in test [1] worked out at 30.2 nM; in test [2], 413 nM.
Consider `Cc1nnn2c1-c1ccc(C3=CCNCC3)cc1C(Nc1cccc3[nH]ccc13)CC2` (stereo not drawn) [WA78, 2,2,2-trifluoroacetate], for which the Ki in test [1] (setting [3]) is 19.8 nM; in test [2] (setting [3]), 281 nM.
With `Cc1cc(NC2CCn3nnc(C)c3-c3ccc(C4=CCNCC4)cc32)n(C)n1` (stereo not drawn) [BJ28, N-(1,3-dimethyl-1H-pyrazol-5-yl)-1-methyl-9-(1,2,3,6-tetrahydropyridin-4-yl)-6,7-dihydro-5H-benzo[c][1,2,3]triazolo[1,5-a]azepin-7-amine 2,2,2-trifluoroacetate], the Ki in test [1] (setting [3]) is 250 nM; in test [2] (setting [3]), 1830 nM.
The matching figures for `Cc1nnn2c1-c1ccc(C3CCNCC3)cc1C(Nc1ccc(Cl)cc1)CC2` (stereo not drawn) [BF169, N-(4-chlorophenyl)-1-methyl-9-(piperidin-4-yl)-6,7-dihydro-5H-benzo[c][1,2,3]triazolo[1,5-a]azepin-7-amine hydrochloride]: 661 nM and more than 20000 nM.
For the compound `CCN1CCC(c2ccc3c(c2)C(Nc2cccc(Cl)c2)CCn2nnc(C)c2-3)CC1` (stereo not drawn) [RD142, N-(3-chlorophenyl)-9-(1-ethylpiperidin-4-yl)-1-methyl-6,7-dihydro-5H-benzo[c][1,2,3]triazolo[1,5-a]azepin-7-amine 2,2,2-trifluoroacetate], the values for the Ki in test [1] (setting [3]) and in test [2] (setting [3]) were 193 nM and 4410 nM, respectively.
For `CC(=O)N1CC=C(c2ccc3c(c2)C(Nc2cccc(Cl)c2F)CCn2nnc(C)c2-3)CC1` (stereo not drawn) [RD180, 1-(4-(7-((3-chloro-2-fluoro-phenyl)amino)-1-methyl-6,7-dihydro-5H-benzo[c][1,2,3]triazolo[1,5-a]azepin-9-yl)-3,6-dihydropyridin-1 (2H)-yl)ethan-1-one], in that order: 12.1 nM and 52 nM.
Consider `Cc1nnn2c1-c1ccc(C3=CCNCC3)cc1C(Nc1ccccc1Cl)CC2` (stereo not drawn) [LC84, N-(2-chlorophenyl)-1-methyl-9-(1,2,3,6-tetrahydropyridin-4-yl)-6,7-dihydro-5H-benzo[c][1,2,3]triazolo[1,5-a]azepin-7-amine 2,2,2-trifluoroacetate], for which the figures for the inhibitory constant (Ki) in test [1] (setting [3]) and in test [2] (setting [3]) were 37.8 nM and 845 nM, respectively.
With `Cc1nnn2c1-c1ccc(-c3cnn(C)c3)cc1C(Nc1ccccc1CCN(C)C)CC2` (stereo not drawn) [LC99, N-(2-(2-(dimethylamino)ethyl)phenyl)-1-methyl-9-(1-methyl-1H-pyrazol-4-yl)-6,7-dihydro-5H-benzo[c][1,2,3]triazolo[1,5-a]azepin-7-amine], the Ki in test [1] (setting [3]) is 12.9 nM; in test [2] (setting [3]), 38.4 nM.
Regarding `CCC(=O)N1CC=C(c2ccc3c(c2)C(Nc2cccc(Cl)c2)CCn2nnc(C)c2-3)CC1` (stereo not drawn) [BH86, 1-(4-(7-((3-chlorophenyl)amino)-1-methyl-6,7-dihydro-5H-benzo[c][1,2,3]triazolo[1,5-a]azepin-9-yl)-3,6-dihydropyridin-1(2H)-yl)propan-1-one], the Ki is 6.43 nM in test [1] (setting [3]) and 9.51 nM in test [2] (setting [3]).
`CNC(=O)Cc1cccc(NC2CCn3nnc(C)c3-c3ccc(C4=CCNCC4)cc32)c1` (stereo not drawn) [LC131]: the Ki in test [1] (setting [3]) is 86.3 nM; in test [2] (setting [3]), 835 nM.
In the case of `Cc1nnn2c1-c1ccc(C3=CCNCC3)cc1C(Nc1ccc(C#N)cc1)CC2` (stereo not drawn) [LC128, 4-((1-methyl-9-(1,2,3,6-tetrahydropyridin-4-yl)-6,7-dihydro-5H-benzo[c][1,2,3]triazolo[1,5-a]azepin-7-yl)amino)benzonitrile 2,2,2-trifluoroacetate], the Ki in test [1] (setting [3]) is 56.2 nM; in test [2] (setting [3]) it was 467 nM.
The matching figures for `Cc1nnn2c1-c1ccc(C3=CCN(C4CCCC4)CC3)cc1C(Nc1cccc(Cl)c1F)CC2` (stereo not drawn) [RD179, N-(3-chloro-2-fluorophenyl)-9-(1-cyclopentyl-1,2,3,6-tetrahydropyridin-4-yl)-1-methyl-6,7-dihydro-5H-benzo[c][1,2,3]triazolol[1,5-a]azepin-7-amine 2,2,2-trifluoroacetate]: 32.6 nM and 2810 nM.
The matching figures for `CCCN1CC=C(c2ccc3c(c2)C(Nc2cccc(Cl)c2)CCn2nnc(C)c2-3)CC1` (stereo not drawn) [BH120, N-(3-chlorophenyl)-1-methyl-9-(1-propyl-1,2,3,6-tetrahydropyridin-4-yl)-6,7-dihydro-5H-benzo[c][1,2,3]triazolo[1,5-a]azepin-7-amine 2,2,2-trifluoroacetate]: 21.9 nM and 583 nM.
As to `CCn1cc(-c2ccc3c(c2)[C@H](Nc2ccc(Cl)cc2)CCn2nnc(C)c2-3)cn1` [RE136, (R)—N-(4-chlorophenyl)-9-(1-ethyl-1H-pyrazol-4-yl)-1-methyl-6,7-dihydro-5H-benzo[c][1,2,3]triazolo[1,5-a]azepin-7-amine], the Ki in test [1] (setting [3]) was less than 1 nM; in test [2] (setting [3]) it was 2.66 ± 0.37 nM.
Consider `CCN1CC=C(c2ccc3c(c2)C(Nc2cccc(Cl)c2F)CCn2nnc(C)c2-3)CC1` (stereo not drawn) [RD115, N-(3-chloro-2-fluorophenyl)-9-(1-ethyl-1,2,3,6-tetrahydropyridin-4-yl)-1-methyl-6,7-dihydro-5H-benzo[c][1,2,3]triazolo[1,5-a]azepin-7-amine 2,2,2-trifluoroacetate], for which the figures for the Ki in test [1] (setting [3]) and in test [2] (setting [3]) were 59.1 nM and 1130 nM, respectively.
For the compound `Cc1nnn2c1-c1ccc(-c3cnn(C)c3)cc1C(Nc1ccccc1C#N)CC2` (stereo not drawn) [LC136, 2-((1-methyl-9-(1-methyl-1H-pyrazol-4-yl)-6,7-dihydro-5H-benzo[c][1,2,3]triazolo[1,5-a]azepin-7-yl)amino)benzonitrile], the Ki was 8.83 nM in test [1] (setting [3]) and 49.7 nM in test [2] (setting [3]).
For `Cc1nnn2c1-c1ccc(-c3cnn(C)c3)cc1C(Nc1cc(F)cc(Cl)c1)CC2` (stereo not drawn) [BJ193, N-(3-chloro-5-fluorophenyl)-1-methyl-9-(1-methyl-1H-pyrazol-4-yl)-6,7-dihydro-5H-benzo[c][1,2,3]triazolo[1,5-a]azepin-7-amine], in that order: 8.4 nM and 28.3 nM.
